One series concerns conscious adult ewes. The series can be described thus: Trachael mucus velocity (TMV) study, fluoroscopy of radiopaque disks. Type of series: in vivo, sheep. The conditions noted are these: for maximal effect on tracheal mucus velocity: 400 μmole (4 ml of 10^−1M) nebulized, mean±standard error, n=6, 15 min after administration; for effect on tracheal mucus velocity: doses 4 to 400 μmole; for effect on tracheal mucus velocity / duration of significant effects on TMV after administration / time of maximal effect on TMV after administration: nebulized; for duration of significant effects on TMV after administration: highest dose (400 μmole); for time of maximal effect on TMV after administration: adult ewes. An excerpt: The effects of UTP and U2P4 on trachael mucus velocity (TMV) were studied using the following procedures: The nasal passages of conscious adult ewes were anesthetized with a 2% lidocaine solution. After local anesthesia was produced, a modified endotracheal tube 7.5 mm was placed such that the cuff was just below the vocal cords (verified by fluoroscopy). Inspired air was warmed and humidified. The cuff of the endotracheal tube was inflated only during administation of the test compound to minimize possible impairment of TMV by the cuff. Test compounds were administered by nebulization in a volume of 4 mL over a period of 10-12 min. TMV was measured by fluroscopy. Ten to twenty radiopaque disks (Teflon®/bismuth trioxide; 1 mm diameter, 0.8 mm thick, weighing 1.8 mg) were introduced into the trachea through a modified suction catheter with a puff of compressed air (3-4 L/min). Velocities of the individual disks were recorded on videotape from a portable image intensifier unit. Individual disk velocities were calculated by measuring the distance traveled by each disk during a 1 min observation period. Values reported are the means of the individual disk velocities. A collar was worn by the sheep which was used as a standard to correct for magnification errors inherent in the fluoroscope.

The next series relates to healthy adult ewes. The series is described as follows: Mucociliary clearance study, 99mTc-HSA clearance by gamma camera. It is filed as in vivo, sheep. The conditions noted are these: 400 μmole nebulized; initial results n=2; compared to saline control. Here is the method: In this study healthy adult ewes were given 99 mTc-labeled human serum albumin (99 mTc-HSA) via a nebulized aerosol. The 99 mTC-HSA (20 mCi) was administered over 5 min through a nasotracheal tube introduced under local anesthesia with 2% lidocaine. After administration of the 99 mTc-HSA, the animals were given a test compound: either UTP or U2P4. Test compounds were administered by nebulization in a volume of 4 mL over a period of 10-12 min. The test compounds were given at a dose of 400 μmole. After the administration of the test compound, the animals were extubated. Clearance of the radiolabeled particles was monitored with a gamma camera. Measurements were made at 0, 5, 10, 15, 20, 25, 30, 35, 40, 45, 50, 55, 60, […], 90, 105 and 120 min.

The subject of series [1] is cultured human epithelial cells. The note with it: cells from normal adult humans and CF patients; cited from earlier work.
Series [2] concerns goblet cells in human airway epithelial explants. The note with it: tissues from healthy individuals and patients with CF; cited from earlier work.
A further series relates to normal volunteers. The note with it: acute; cited from earlier work.
Series [3] concerns anesthetized and ventilated dogs. The note with it: cited from earlier work.
In series [4] the test system is human nasal epithelial cells. The note with it: cited from earlier work.

The structures appear in SMILES notation. Where two headings read alike, the source gives them in different places. Bounds are passed on as bounds.

`O=c1ccn([C@@H]2O[C@H](COP(=O)(O)OP(=O)(O)OP(=O)(O)OP(=O)(O)OC[C@H]3O[C@@H](n4ccc(=O)[nH]c4=O)[C@H](O)[C@@H]3O)[C@@H](O)[C@H]2O)c(=O)[nH]1` [U2P4, P1,P4-di(uridine-5′)tetraphosphate]: in the series with conscious adult ewes, the “maximal effect on tracheal mucus velocity” value was 144±9 % of baseline, the “effect on tracheal mucus velocity” value is listed as “significant dose-related effects”, the “duration of significant effects on TMV after administration” value is recorded as no more than 2 h and the “time of maximal effect on TMV after administration” value is given as 15 min. Moreover, the “clearance of radiolabeled particles (99mTc-HSA)” value in the series with healthy adult ewes is listed as “promote clearance of the radiolabeled particles”.

Regarding `O=c1ccn([C@@H]2O[C@H](COP(=O)(O)OP(=O)(O)OP(=O)(O)O)[C@@H](O)[C@H]2O)c(=O)[nH]1` [UTP, uridine 5′-triphosphate], the cilia beat frequency result in series [1] is “increase in cilia beat frequency”. In addition, in the series on conscious adult ewes, the “maximal effect on tracheal mucus velocity” value is reported as 125±7 % of baseline, the “effect on tracheal mucus velocity” value was “significant dose-related effects”, the “duration of significant effects on TMV after administration” value is on record as “up to 4 h” and the “time of maximal effect on TMV after administration” value came to 15 min. Further, in series [2], the “mucin secretion by goblet cells” value was “increase the rate and total amount of mucin secretion”. Further, the “improvement of mucociliary clearance (MCC)” value in the series with normal volunteers is recorded as 2.5 fold. Also, the “clearance of radiolabeled particles (99mTc-HSA)” value in the series on healthy adult ewes is “promote clearance of the radiolabeled particles”. The “effects on peak inspiratory airway pressure, mean pulmonary artery pressure, heart rate, cardiac output, thoracic aortic pressure, electrocardiogram, arterial blood gases” value in series [3] (aerosol, 10^−2 M and 10^−1 M in nebulizer) is reported as “no significant effects”. For the same compound, the “changes in mean pulmonary artery pressure, heart rate, cardiac output, mean arterial pressure” value in series [3] (intravenous, sequential doses 0.1, 1, 3 and 5 mmoles/kg infused over 10 minutes) is recorded as “no significant changes”. The Cl- secretion entry in series [4] (cultured nasal epithelial cells from cystic fibrosis (CF) patients) is given as “This response was also observed”. The Cl- secretion result in series [4] (normal human nasal epithelial cells, apical application) was “increased Cl- secretion in a concentration-dependent manner”.
